{"source": "patent US6586441B2", "about": "“Adenosine receptor ligands and their use in the treatment of disease” (Hoffman-La Roche Inc., priority 2000, dated 2003)", "data": [{"target": "T1, human adenosine A2A receptor (Homo sapiens, UniProt P29274)", "T1 construct": "expressed in transfected cells; host or cells: CHO cells, semliki forest virus expression system; membrane preparation", "T1 sequence (P29274 whole entry)": "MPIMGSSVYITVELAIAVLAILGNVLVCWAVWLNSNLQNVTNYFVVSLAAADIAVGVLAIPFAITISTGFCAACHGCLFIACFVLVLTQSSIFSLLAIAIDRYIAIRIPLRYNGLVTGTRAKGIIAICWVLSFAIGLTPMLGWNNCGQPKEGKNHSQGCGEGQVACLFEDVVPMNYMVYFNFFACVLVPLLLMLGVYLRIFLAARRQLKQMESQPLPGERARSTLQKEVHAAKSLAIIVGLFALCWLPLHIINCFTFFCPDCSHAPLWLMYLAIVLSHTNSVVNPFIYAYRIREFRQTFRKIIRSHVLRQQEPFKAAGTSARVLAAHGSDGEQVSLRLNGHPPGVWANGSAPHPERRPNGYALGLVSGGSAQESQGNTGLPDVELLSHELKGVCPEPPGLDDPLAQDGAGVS", "test": "Human adenosine A2A receptor [3H]-SCH-58261 binding assay", "settings": "human A2a receptor, membranes of CHO cells, [3H]-SCH-58261; read-out: pKi (affinity to the human A2a receptor) (converted)", "protocol": "The gene encoding human adenosine A2A receptor was recombinantly introduced and expressed in chinese hamster ovary (CHO) cells using the semliki forest virus expression system. Cells were harvested, washed twice by centrifugation, homogenised and again washed by centrifugation. The final washed membrane pellet was suspended in a Tris (50 mM) buffer containing 120 mM NaCl, 5 mM KCl, 2 mM CaCl2 and 10 mM MgCl2 (pH 7.4) (buffer A). The [^3H]-SCH-58261 (Dionisotti et al., 1997, Br. J. Pharmacol. 121, 353; 1 nM) binding assay was carried out in 96-well plates in the presence of 2.5 μg of membrane protein, 0.5 mg of Ysi-poly-1-lysine SPA beads and 0.1 U adenosine deaminase in a final volume of 200 μl of buffer A. Non-specific binding was defined using xanthine amine congener (XAC; […]). Compounds were tested at 10 concentrations from 10 μM-0.3 nM. All assays were conducted in duplicate and repeated at least two times. Assay plates were incubated for 1 hour at room temperature before centrifugation and then bound ligand determined using a Packard Topcount scintillation counter. IC50 values were calculated using a non-linear curve fitting program and Ki values calculated using the Cheng-Prussoff equation.", "units": {"Ki": "nM"}, "values": [{"smiles": "Nc1nc(OCC=Cc2ccccc2)c(Br)c(-c2ccco2)n1", "note": "[Example 280, 5-Bromo-4-furan-2-yl-6-(3-phenyl-allyloxy)-pyrimidin-2-yl-amine]", "Ki": 9.33}, {"smiles": "N#Cc1c(NCc2ccccn2)nc(N)nc1-c1ccco1", "note": "[Example 283, 2-Amino-4-furan-2-yl-6-[(pyridin-2-ylmethyl)-amino]-pyrimidine-5-carbonitrile]", "Ki": 5.89}, {"smiles": "N#Cc1c(SCc2ccccn2)nc(N)nc1-c1ccco1", "note": "[Example 284, 2-Amino-4-furan-2-yl-6-(pyridin-2-ylmethylsulfanyl)-pyrimidine-5-carbonitrile]", "Ki": 3.89}, {"smiles": "Nc1nc(OCc2ccccc2)c([N+](=O)[O-])c(-c2ccco2)n1", "note": "[Example 286, 4-Benzyloxy-6-furan-2-yl-5-nitro-pyrimidin-2-yl-amine]", "Ki": 9.55}, {"smiles": "Cc1cccc(CNc2nc(N)nc(-c3ccco3)c2C#N)c1", "note": "[Example 289, 2-Amino-4-furan-2-yl-6-(3-methyl-benzylamino)-pyrimidine-5-carbonitrile]", "Ki": 3.72}, {"smiles": "COc1cccc(CNc2nc(N)nc(-c3ccco3)c2C#N)c1", "note": "[Example 291, 2-Amino-4-furan-2-yl-6-(3-methoxy-benzylamino)-pyrimidine-5-carbonitrile]", "Ki": 3.31}, {"smiles": "COc1ccccc1CNc1nc(N)nc(-c2ccco2)c1C#N", "note": "[Example 293, 2-Amino-4-furan-2-yl-6-(2-methoxy-benzylamino)-pyrimidine-5-carbonitrile]", "Ki": 3.72}, {"smiles": "N#Cc1c(NCc2ccc3ccccc3n2)nc(N)nc1-c1ccco1", "note": "[Example 297, 2-Amino-4-furan-2-yl-6-[(quinolin-2-ylmethyl)-amino]-pyrimidine-5-carbonitrile]", "Ki": 1.38}, {"smiles": "N#Cc1c(NCCSc2ccccc2)nc(N)nc1-c1ccco1", "note": "[Example 302, 2-Amino-4-furan-2-yl-6-(2-phenylsulfanyl-ethylamino)-pyrimidine-5-carbonitrile]", "Ki": 7.76}, {"smiles": "N#Cc1c(NCc2ccccc2N)nc(N)nc1-c1ccco1", "note": "[Example 304, 2-Amino-4-(2-amino-benzylamino)-6-furan-2-yl-pyrimidine-5-carbonitrile]", "Ki": 3.55}, {"smiles": "N#Cc1c(NCc2ccc(N)cc2)nc(N)nc1-c1ccco1", "note": "[Example 305, 2-Amino-4-(4-amino-benzylamino)-6-furan-2-yl-pyrimidine-5-carbonitrile]", "Ki": 8.91}, {"smiles": "CN(C)c1ccc(CNc2nc(N)nc(-c3ccco3)c2C#N)cc1", "note": "[Example 312, 2-Amino-4-(4-dimethylamino-benzylamino)-6-furan-2-yl-pyrimidine-5-carbonitrile]", "Ki": 9.77}, {"smiles": "N#Cc1c(SCCc2ccccn2)nc(N)nc1-c1ccco1", "note": "[Example 313, 2-Amino-4-furan-2—,yl-6-(2-pyridin-2-yl-ethylsulfanyl)-pyrimidine-5-carbonitrile]", "Ki": 0.832}, {"smiles": "Nc1nc(OCCCc2ccccc2)c(Cl)c(-c2ccco2)n1", "note": "[Example 321, 5-Chloro-4-furan-2-yl-6-(3-phenyl-propoxy)-pyrimidin-2-yl-amine]", "Ki": 2.82}, {"smiles": "Nc1nc(OCCc2ccccc2)c(Cl)c(-c2ccco2)n1", "note": "[Example 322, 5-Chloro-4-furan-2-yl-6-phenethyloxy-pyrimidin-2-yl-amine]", "Ki": 9.77}, {"smiles": "Nc1nc(SCc2ccccc2)c(Cl)c(-c2ccco2)n1", "note": "[Example 324, 4-Benzylsulfanyl-5-chloro-6-furan-2-yl-pyrimidin-2-yl-amine]", "Ki": 9.12}, {"smiles": "N#Cc1c(NCCNc2ccccn2)nc(N)nc1-c1ccco1", "note": "[Example 330, 2-Amino-4-furan-2-yl-6-[2-(pyridin-2-ylamino)-ethylamino]-pyrimidine-5-carbonitrile]", "Ki": 7.94}, {"smiles": "N#Cc1c(-c2ccco2)nc(N)nc1N1CCc2ccccc2C1", "note": "[Example 336, 2-Amino-4-(3,4-dihydro-1H-isoquinolin-2-yl)-6-furan-2-yl-pyrimidine-5-carbonitrile]", "Ki": 8.13}, {"smiles": "N#Cc1c(NCc2ccc3c(c2)OCO3)nc(N)nc1-c1ccco1", "note": "[Example 337, 2-Amino-4-[(benzo [1,3]dioxol-5-ylmethyl)-amino]-6-furan-2-yl-pyrimidine-5-carbonitrile]", "Ki": 6.61}, {"smiles": "N#Cc1c(NCc2cccc(C(F)(F)F)c2)nc(N)nc1-c1ccco1", "note": "[Example 346, 2-Amino-4-furan-2-yl-6-(3-trifluoromethyl-benzylamino)-pyrimidine-5-carbonitrile]", "Ki": 2.4}, {"smiles": "Cc1ccc(CNc2nc(N)nc(-c3ccco3)c2C#N)cc1C", "note": "[Example 347, 2-Amino-4-(3,4-dimethyl-benzylamino)-6-furan-2-yl-pyrimidine-5-carbonitrile]", "Ki": 1.66}, {"smiles": "Cc1ccnc(CNc2nc(N)nc(-c3ccco3)c2C#N)c1", "note": "[Example 348, 2-Amino-4-furan-2-yl-6-[(4-methyl-pyridin-2-ylmethyl)-amino]-pyrimidine-5-carbonitrile]", "Ki": 2.09}, {"smiles": "Nc1nc(SCCc2ccccn2)c(I)c(-c2ccco2)n1", "note": "[Example 352, 4-Furan-2-yl-5-iodo-6-(2-pyridin-2-yl-ethylsulfanyl)-pyrimidin-2-yl-amine]", "Ki": 5.13}, {"smiles": "Nc1nc(SCCc2ccccn2)c(Br)c(-c2ccco2)n1", "note": "[Example 353, 5-Bromo-4-furan-2-yl-6-(2-pyridin-2-yl-ethylsulfanyl)-pyrimidin-2-yl-amine]", "Ki": 3.8}, {"smiles": "Nc1nc(SCCc2ccccn2)c(Cl)c(-c2ccco2)n1", "note": "[Example 354, 5-Chloro-4-furan-2-yl-6-(2-pyridin-2-yl-ethylsulfanyl)-pyrimidin-2-yl-amine]", "Ki": 4.9}, {"smiles": "N#Cc1c(OCc2ccccn2)cc(N)nc1-c1ccco1", "note": "[Example 355, 6-Amino-2-furan-2-yl-4-(pyridin-2-yl-methoxy)-nicotinonitrile]", "Ki": 3.02}, {"smiles": "N#Cc1c(SCCc2ccccn2)cc(N)nc1-c1ccco1", "note": "[Example 356, 6-Amino-2-furan-2-yl-4-(2-pyridin-2-yl-ethylsulfanyl)-nicotinonitrile]", "Ki": 0.912}, {"smiles": "N#Cc1c(NCc2ccc(C(F)(F)F)cc2)cc(N)nc1-c1ccco1", "note": "[Example 357]", "Ki": 9.12}, {"smiles": "N#Cc1c(NCc2ccccc2Br)nc(N)nc1-c1ccco1", "note": "[Example 359, 2-Amino-4-(2-bromo-benzylamino)-6-furan-2-yl-pyrimidine-5-carbonitrile]", "Ki": 0.631}, {"smiles": "N#Cc1c(NCc2ccccc2Cl)nc(N)nc1-c1ccco1", "note": "[Example 360, 2-Amino-4-(2-chloro-benzylamino)-6-furan-2-yl-pyrimidine-5-carbonitrile]", "Ki": 0.589}, {"smiles": "Cc1cccnc1COc1nc(N)nc(-c2ccco2)c1C#N", "note": "[Example 361, 2-Amino-4-furan-2-yl-6-(3-methyl-pyridin-2-yl-methoxy)-pyrimidine-5-carbonitrile]", "Ki": 0.603}, {"smiles": "Cc1ccc(COc2nc(N)nc(-c3ccco3)c2C#N)nc1", "note": "[Example 362, 2-Amino-4-furan-2-yl-6-(5-methyl-pyridin-2-yl-methoxy)-pyrimidine-5-carbonitrile]", "Ki": 2.63}, {"smiles": "Cc1ccc(CNc2nc(N)nc(-c3ccco3)c2C#N)nc1", "note": "[Example 363, 2-Amino-4-furan-2-yl-6-[(5-methyl-pyridin-2-yl-methyl)-amino]-pyrimidine-5-carbonitrile]", "Ki": 3.24}, {"smiles": "N#Cc1c(NCc2ccc3ccccc3n2)cc(N)nc1-c1ccco1", "note": "[Example 364, 6-Amino-2-furan-2-yl-4-[(quinolin-2-ylmethyl)-amino]-nicotinonitrile]", "Ki": 3.89}, {"smiles": "N#Cc1c(OCc2cc3ccccc3cn2)nc(N)nc1-c1ccco1", "note": "[Example 366, 2-Amino-4-furan-2-yl-6-(isoguinolin-3-yl-methoxy)-pyrimidine-5-carbonitrile]", "Ki": 1.82}, {"smiles": "N#Cc1c(NCc2cc3ccccc3cn2)nc(N)nc1-c1ccco1", "note": "[Example 367, 2-Amino-4-furan-2-yl-6-[(isoguinolin-3-yl-methyl)-amino]-pyrimidine-5-carbonitrile]", "Ki": 2.29}, {"smiles": "Cc1cccnc1CNc1nc(N)nc(-c2ccco2)c1C#N", "note": "[Example 368, 2-Amino-4-furan-2-yl-6-[(3-methyl-pyridin-2-yl-methyl)-amino]-pyrimidine-5-carbonitrile]", "Ki": 1.86}, {"smiles": "N#Cc1c(SCCc2ccccn2)nc(N)nc1-c1cccs1", "note": "[Example 370]", "Ki": 8.91}, {"smiles": "N#Cc1c(NCc2ccccn2)cc(N)nc1-c1ccco1", "note": "[Example 371, 6-Amino-2-furan-2-yl-4-[(pyridin-2-yl-methyl)-amino]-nicotinonitrile]", "Ki": 8.13}, {"smiles": "Cc1ccnc(COc2nc(N)nc(-c3ccco3)c2C#N)c1", "note": "[Example 373, 2-Amino-4-furan-2-yl-6-(4-methyl-pyridin-2-yl-methoxy)-pyrimidine-5-carbonitrile]", "Ki": 5.13}, {"smiles": "C=Cc1ccc(CNc2nc(N)nc(-c3ccco3)c2C#N)cc1", "note": "[Example 374, 2-Amino-4-furan-2-yl-6-(4-vinyl-benzylamino)-pyrimidine-5-carbonitrile]", "Ki": 9.33}, {"smiles": "Cc1cccnc1CNc1cc(N)nc(-c2ccco2)c1C#N", "note": "[Example 376, 6-Amino-2-furan-2-yl-4-[(3-methyl-pyridin-2-yl-methyl)-amino]-nicotinonitrile]", "Ki": 4.57}, {"smiles": "Cc1ccc(CNc2cc(N)nc(-c3ccco3)c2C#N)nc1", "note": "[Example 377, 6-Amino-2-furan-2-yl-4-[(5-methyl-pyridin-2-yl-methyl)-amino]-nicotinonitrile]", "Ki": 7.76}, {"smiles": "Cc1ccc(COc2nc(N)nc(-c3ccco3)c2C#N)cn1", "note": "[Example 381, 2-Amino-4-furan-2-yl-6-(6-methyl-pyridin-3-yl-methoxy)-pyrimidine-5-carbonitrile]", "Ki": 3.47}]}]}
